Measurements as given in PubChem BioAssay AID2060624 (Molecular Pharmacology Branch, DTP, NCI, 2025).
pIC50: −log10 of the molar value.

Test system: 217524-143-R1-J4-PDC spheroids with HUVEC/MSC, viability
Assay: Anticancer human tumor 217524-143-R1-J4-PDC patient-derived pancreatic carcinoma cell line growth inhibition [CLK]
Conditions: for pIC50: curve of first compound; for viability, T/C: stronger effect = lower value
Text: A high-throughput screen of multi-cell type tumor spheroids was designed to identify active combinations of […] and targeted small molecules. Complex spheroids include a stromal component modeled by human endothelial cells (HUVEC) and fibroblasts modeled by human mesenchymal stem cells (MSCs). The concentration ranges selected for each drug and investigational agent were based upon clinically achievable concentrations if the clinical Cmax of the agent was known.
Compounds. The drugs and investigational agents: cirtuvivint (SM08502; NSC835563), CC-671 (NSC850746), vemurafenib (NSC761431), tapotoclax (NSC804041), sotorasib (NSC818433), adagrasib (NSC831453), MRTX-1133 (NSC836407), BAY2416964 (NSC825713), copanlisib (NSC816437), inavolisib (NSC800729), abemaciclib (NSC768073), osimertinib (NSC779217), entinostat (NSC756642), eltanexor (KPT-8602, NSC794443), venetoclax (NSC766270), ceralasertib (NSC777638), bortezomib (NSC756655), olaparib (NSC753686), talazoparib (NSC767125), alisertib (NSC759677), peposertib (NSC802822), gemcitabine (NSC613327), 5-fluorouracil (NSC19893), SN-38 (NSC673596), oxaliplatin (NSC266046), paclitaxel (NSC125973), and doxorubicin (NSC123127), were obtained from the National Cancer Institute (NCI) Developmental Therapeutics Program Chemical Repository. The FDA-approved anticancer drug set is available from the Developmental Therapeutics Program at https://dtp.cancer.gov/organization/dscb/obtaining/available plates.htm. […] The stock solutions were prepared in dimethyl sulfoxide (DMSO, Sigma-Aldrich, St. Louis, MO, cat. D2650), except for the platinum complexes which were prepared in saline (Quality Biological, Gaithersburg, MD, cat. 114-055-101), at 800-fold the tested concentration and stored at -70 degrees C prior to their use. All drugs and investigational agents were tested over a range starting from a high concentration at or near the clinical Cmax and decreasing in half-log increments. If the clinical Cmax for an agent had not been determined, the highest concentration tested was 10 microM.
Cell Culture. All cells were maintained in an incubator at 37 degrees C and 5% CO2 with 95% humidity. The PDC lines were cultured according to standard operating procedures established by the NCI PDMR. Briefly, all PDCs were thawed and cultured in Matrigel-coated flasks prepared with a working solution of 1X Ham's F-12 nutrient mix, without supplementation (Invitrogen, Waltham, MA, cat. 11765054), 100 U/mL penicillin-streptomycin (Invitrogen, cat. 15140122), and 2.5% Matrigel (Corning Inc., Corning, NY, cat. 354248) for the first three passages. The 947758-054-R-J2-PDC line was cultured in 6B/Colon 1A media, which includes advanced DMEM/F-12 (Thermo Fisher Scientific, cat. 12634028), 10 mM HEPES (Thermo Fisher Scientific, cat. 15630080), 1X GlutaMAX supplement (Thermo Fisher Scientific, cat. 35050061), 0.1 mg/mL primocin (InvivoGen, cat. ant-pm-2), 10% defined fetal bovine serum, heat inactivated (HyClone Laboratories Inc., cat. SH30070.03HI), 1.25 mM N-Acetyl-L-cysteine (Sigma-Aldrich, cat. A9165), 10 mM nicotinamide (Sigma-Aldrich, cat. N0636), 1X B-27 supplement (Thermo Fisher Scientific, cat. 17504044), 1X N-2 supplement (Thermo Fisher Scientific, cat. 17502048), and 10 microM Y-27632 dihydrochloride (Tocris Bioscience, cat. 1254). The 876862-298-R-J1-PDC was cultured in 6E media, which includes all 6B/Colon 1A media components plus 50% L-WRN conditioned media (ATCC, cat. CRL-3276), 50 ng/mL recombinant human EGF recombinant protein (hEGF; Thermo Fisher Scientific, cat. PHG0311), 10 ng/mL recombinant human fibroblast growth factor 10 (hGFG-10; PeproTech, cat. 100-26), 1 ng/mL recombinant human fibroblast growth factor 2 (hFGF-2; PeproTech, cat. 100-18B), and 1 µM prostaglandin E2 (PGE2; Tocris, cat. 2296). The 227483-062-R1-J1-PDC line was cultured in Panc media, containing all 6E components except hFGF-2, with the addition of 500 nM SB-431542 (Selleckchem, cat. S1067) and 10 nM gastrin (Tocris, cat. 3006). […]

[1] = second compound 0.0316 µM, first compound 0.0316 µM
[2] = second compound 0.0316 µM, first compound 0.1 µM
[3] = second compound 0.0316 µM, first compound 0.316 µM
[4] = second compound 0.0316 µM, first compound 1 µM
[5] = second compound 0.0316 µM, first compound 3.16 µM
[6] = second compound 0.0316 µM, first compound 10 µM
[7] = second compound 0.1 µM, first compound 0.0316 µM
[8] = second compound 0.1 µM, first compound 0.1 µM
[9] = second compound 0.1 µM, first compound 0.316 µM
[10] = second compound 0.1 µM, first compound 1 µM
[11] = second compound 0.1 µM, first compound 3.16 µM
[12] = second compound 0.1 µM, first compound 10 µM
[13] = second compound 0.316 µM, first compound 0.0316 µM
[14] = second compound 0.316 µM, first compound 0.1 µM
[15] = second compound 0.316 µM, first compound 0.316 µM
[16] = second compound 0.316 µM, first compound 1 µM
[17] = second compound 0.316 µM, first compound 3.16 µM
[18] = second compound 0.316 µM, first compound 10 µM
[19] = second compound 1 µM, first compound 0.0316 µM
[20] = second compound 1 µM, first compound 0.1 µM
[21] = second compound 1 µM, first compound 0.316 µM
[22] = second compound 1 µM, first compound 1 µM
[23] = second compound 1 µM, first compound 3.16 µM
[24] = second compound 1 µM, first compound 10 µM
[25] = second compound 3.16 µM, first compound 0.0316 µM
[26] = second compound 3.16 µM, first compound 0.1 µM
[27] = second compound 3.16 µM, first compound 0.316 µM
[28] = second compound 3.16 µM, first compound 1 µM
[29] = second compound 3.16 µM, first compound 3.16 µM
[30] = second compound 3.16 µM, first compound 10 µM
[31] = second compound 10 µM, first compound 0.0316 µM
[32] = second compound 10 µM, first compound 0.1 µM
[33] = second compound 10 µM, first compound 0.316 µM
[34] = second compound 10 µM, first compound 1 µM
[35] = second compound 10 µM, first compound 3.16 µM
[36] = second compound 10 µM, first compound 10 µM
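Further: spheroids exposed to agents for seven days before reading.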
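Wherever viability, T/C is given: 100% = DMSO vehicle control viability.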

CCCS(=O)(=O)Nc1ccc(F)c(C(=O)c2c[nH]c3ncc(-c4ccc(Cl)cc4)cc23)c1F + CN1CCN(c2cc(C(=O)Nc3cc4cc(-c5cnn(C)c5)ccc4cn3)ccn2)CC1
pIC50 (second compound 0.0316 µM): < 5.00
pIC50 (second compound 0.1 µM): < 5.00
pIC50 (second compound 0.316 µM): > 7.50
pIC50 (second compound 1 µM): > 7.50
pIC50 (second compound 3.16 µM): > 7.50
pIC50 (second compound 10 µM): > 7.50
viability, T/C [1]: 86.3%
viability, T/C [2]: 69.2%
viability, T/C [3]: 107%
viability, T/C [4]: 124%
viability, T/C [5]: 135%
viability, T/C [6]: 61.4%
viability, T/C [7]: 61.4%
viability, T/C [8]: 67.7%
viability, T/C [9]: 62.4%
viability, T/C [10]: 78.8%
viability, T/C [11]: 100%
viability, T/C [12]: 44.4%
viability, T/C [13]: 26.1%
viability, T/C [14]: 26.4%
viability, T/C [15]: 33.3%
viability, T/C [16]: 32.9%
viability, T/C [17]: 34.9%
viability, T/C [18]: 19.9%
viability, T/C [19]: 2.26%
viability, T/C [20]: 2.37%
viability, T/C [21]: 2.29%
viability, T/C [22]: 3.2%
viability, T/C [23]: 2.09%
viability, T/C [24]: 2.01%
viability, T/C [25]: 0.92%
viability, T/C [26]: 0.96%
viability, T/C [27]: 1.2%
viability, T/C [28]: 1.02%
viability, T/C [29]: 1.17%
viability, T/C [30]: 0.97%
viability, T/C [31]: 0.29%
viability, T/C [32]: 0.32%
viability, T/C [33]: 0.65%
viability, T/C [34]: 0.3%
viability, T/C [35]: 1.04%
viability, T/C [36]: 1.34%

COC1C=CCC(C)C(C)S(=O)(=O)NC(=O)c2ccc3c(c2)N(CC2CCC21)CC1(CCCc2cc(Cl)ccc21)CO3 (centres undefined) + CN1CCN(c2cc(C(=O)Nc3cc4cc(-c5cnn(C)c5)ccc4cn3)ccn2)CC1
pIC50 (second compound 0.0316 µM): 5.19
pIC50 (second compound 0.1 µM): 5.38
pIC50 (second compound 0.316 µM): > 7.50
pIC50 (second compound 1 µM): > 7.50
pIC50 (second compound 3.16 µM): > 7.50
pIC50 (second compound 10 µM): > 7.50
viability, T/C [1]: 90.2%
viability, T/C [2]: 93.2%
viability, T/C [3]: 75%
viability, T/C [4]: 91.2%
viability, T/C [5]: 107%
viability, T/C [6]: 23.8%
viability, T/C [7]: 65.7%
viability, T/C [8]: 67.5%
viability, T/C [9]: 56%
viability, T/C [10]: 61.4%
viability, T/C [11]: 58.5%
viability, T/C [12]: 24.5%
viability, T/C [13]: 23.9%
viability, T/C [14]: 23.3%
viability, T/C [15]: 23.3%
viability, T/C [16]: 22.9%
viability, T/C [17]: 27%
viability, T/C [18]: 16.6%
viability, T/C [19]: 2.49%
viability, T/C [20]: 1.84%
viability, T/C [21]: 1.71%
viability, T/C [22]: 1.6%
viability, T/C [23]: 1.08%
viability, T/C [24]: 1.77%
viability, T/C [25]: 0.91%
viability, T/C [26]: 1.31%
viability, T/C [27]: 0.81%
viability, T/C [28]: 1%
viability, T/C [29]: 1.26%
viability, T/C [30]: 0.8%
viability, T/C [31]: 1.26%
viability, T/C [32]: 0.35%
viability, T/C [33]: 0.37%
viability, T/C [34]: 0.37%
viability, T/C [35]: 0.36%
viability, T/C [36]: 1.06%
